Data reported in the METLIN SMRT retention time set (Domingo-Almenara et al. 2019).

Experiment: gradient 5% acetonitrile 3 min, to 50% in 2 min, to 85% in 15 min, held 3 min, 100 µL/min
Details: column: Zorbax Extend-C18 2.1 x 50 mm; eluents: water / acetonitrile, 0.1% formic acid
In short: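 Using water and acetonitrile that each contained 0.1% formic acid, mixtures of ~100 pure standards were separated at 100 μL/min on a Zorbax Extend-C18 column (2.1 × 50 mm, 1.8 μm). The HPLC fed a quadrupole time-of-flight mass spectrometer working in positive and negative ionization mode, with dead and dwell volumes of 40 μL and 900 μL. Data were acquired over 3 months. Retention time was read from computationally picked adduct peaks after manual inspection of each.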

SMILES | RP-LC retention time [s]
CN(CC1CCOCC1)S(=O)(=O)c1ccccc1C(F)(F)F | 861
CN1C(=O)c2ccccc2Sc2ccc(NC(=O)N3CCC(C(N)=O)CC3)cc21 | 1430
CN1C(=O)[C@H]2CN(Cc3ccc(F)c(F)c3)C[C@H]2C1=O | 590
CN(C)C(=O)c1n[nH]c2c1CN(C(=O)c1cc(F)cc(F)c1)CC2 | 635
CC1CCN(c2nccnc2Oc2ccc(C(=O)NCc3ccco3)cc2)CC1 | 979
CCOC(=O)c1cccc(N2C=C(C#N)S(=O)(=O)c3cc(F)ccc32)c1 | 937
O=C(c1ccc(F)c(F)c1)N1CCC2(CC1)NC(=O)N(Cc1ccc(F)cc1)C2=O | 830
c1cc(N2CCSCC2)ncc1-c1noc(CN2CCOCC2)n1 | 702
CCCn1cc(C(=O)NCC(=O)OCC)c(S(=O)(=O)N2CCN(c3cccc(Cl)c3)CC2)n1 | 1060
COc1cccc(-c2csc(-c3nnn(-c4ccccc4)c3N)n2)c1 | 1040
Cc1ccccc1N1CCN(Cc2nc(-c3ccc(N4CCCC(C)C4)nc3)no2)CC1 (stereo unspecified) | 1160
OC(CN1CCN(c2ncccn2)CC1)c1ccc(Cl)cc1 (stereo unspecified) | 614
CC(C)c1ccc2c(c1)-c1ccccc1S(=O)(=O)N2CC(=O)N1CC(=O)Nc2ccccc21 | 927
CCOC(=O)c1nc(NCCc2ccc(C)cc2)c2c(CC)noc2n1 | 1080
COc1cc(NC(=O)N2CC(c3nc(C(C)C)nn3C)C2)cc(OC)c1 | 662
COc1ccc(Cl)cc1NC(=O)N1CCCC1c1nc(-c2ccc(F)cc2F)no1 (stereo unspecified) | 1120
CCC(C)NC(=O)CCn1c(=O)c2ccccc2n2c(=O)n(Cc3ccc(F)cc3)nc12 (stereo unspecified) | 890
CCCNC(=O)C1CCCN(c2ccc(SCC(=O)Nc3ccc(F)cc3)nn2)C1 (stereo unspecified) | 668
COc1ccc(C2CC(=O)N(c3cccc(F)c3)C(=O)C2)cc1 | 896
Cc1csc(-c2cn(CC(=O)Nc3ccc(C)c(F)c3)cn2)n1 | 728
Cc1cc(S(=O)(=O)NCC2CCCO2)cc([N+](=O)[O-])c1C (stereo unspecified) | 778
Cc1ccccc1-c1noc(CSc2nc3cc4c(cc3c(=O)n2CC2CCCO2)OCO4)n1 (stereo unspecified) | 1170

SMILES | RP-LC retention time [s]
CCn1c(C(=O)NCc2ccc(F)cc2)cc2sccc21 | 1010
CCc1cccc(C)c1NC(=O)Cn1c(=O)c(CCC(=O)NC2CCCC2)nc2ccccc21 | 844
Cc1cccc(-c2nc(-c3ccc(-n4cccn4)nc3)no2)c1 | 1330
COc1cc2c(C(=O)Oc3cccnc3)cn(-c3ccccc3)c(=O)c2cc1OC | 836
CC(C)OCCCNC(=O)c1ccc2nc(Cc3ccccc3)oc2c1 | 884
Cc1cccc(C2=NC3(CCN(C(=O)Nc4ccc5c(c4)OCO5)CC3)NC2=O)c1 | 790
Cc1cccc(NC(=O)N2CCCC(C)(C(=O)NCc3ccc(F)cc3)C2)c1C (stereo unspecified) | 929
COCCNC(=O)N1CCCN(C2=NS(=O)(=O)C(c3ccc(Cl)cc3)=C2C)CC1 | 718
Cc1noc(C)c1CN1CCN(C(=O)CSc2ccc(F)cc2)CC1 | 570
COc1ccc(-c2nnc(SCC(=O)Nc3ccc(S(N)(=O)=O)cc3)o2)cc1 | 736
CC(C)C(=O)Nc1ccc(C(=O)NCCNS(=O)(=O)c2ccc(F)c(Cl)c2)cc1 | 720
CCN1C(=O)c2cccnc2Sc2cc(NC(=O)c3cc(C)ccc3C)ccc21 | 898
O=C(Nc1cnc(N2CCC(N3CCCCC3)CC2)c(C(=O)O)c1)c1ccc(Br)cc1 | 637
Cc1cc(N2CCN(C(=O)Nc3ccccc3F)CC2)nc(N2CCCC2)n1 | 626
CC(=O)N1C[C@@H]2CCCN3CCC[C@@H]([C@H]23)[C@H]1CCCC(=O)NCCN(C)C1CCCCC1 | 538
CCC(=O)N1CCc2cc(N3CC(C(=O)NC4CCCCC4)CC3=O)ccc21 (stereo unspecified) | 728
O=C(CCCCCCC(=O)Nc1ccc(F)cc1)NO | 628
Cc1nc(-c2ccc(C(=O)N3CCC(C(=O)N4CCc5ccccc54)CC3)cc2)no1 | 816
CC(C)c1ccc(NC(=O)CN2C(=O)C3CCCCN3c3ccc(S(=O)(=O)N(C)C)cc32)cc1 (stereo unspecified) | 955
Cc1ccc(C(C)NC(=O)C2CCN(c3ccc4nncn4n3)CC2)cc1 (stereo unspecified) | 736
Cn1cc2c3c(cccc31)CN(C(=O)c1ccccc1Cl)CC2 | 975
Cc1ccc(-c2nc3cccnc3n2CCN2CCN(C(=O)NC3CCCC3)CC2)cc1 | 627

SMILES | RP-LC retention time [s]
Cc1ccc2c(Nc3ccc(Cl)cc3)c(C(=O)N3CCSCC3)cnc2n1 | 634
CCC(c1cccs1)N1C(=O)[C@H]2CN(S(=O)(=O)Cc3ccccc3)C[C@H]2C1=O (stereo partly specified) | 964
CCN1CCN(c2cc(C)c3cc(NC(=O)CSc4ccccc4)ccc3n2)CC1 | 602
Cc1ccccc1CSc1nnc(-c2ccccc2Cl)o1 | 1180
COC(=O)c1ccc(CSc2nnc(CNC(=O)c3ccccc3)o2)o1 | 683
CCc1ccc(-c2csc(NC(=O)Cc3csc(-c4ccccc4)n3)n2)cc1 | 1240
CCc1ccc(S(=O)(=O)N2c3ccccc3NC3=C(C(=O)CCC3)C2c2ccco2)cc1 (stereo unspecified) | 923
Cc1cc(C)c(S(=O)(=O)N2CCC[C@@H]2C(=O)NCCc2csc(C)n2)c(C)c1 | 814
COc1cccc(Nc2c(-c3ccc(SC)cc3)nc3cnccn23)c1 | 912
COc1cccc(Cn2c(C)c(CNCc3ccc(C)o3)c(C(=O)O)c2C)c1 | 715
COc1ccc(NC(=O)c2cn(-c3cc(N4CCCCC4)ncn3)cn2)cc1Cl | 984
COCC1CN(Cc2cccc3[nH]ccc23)CC12CCNCC2 (stereo unspecified) | 510
CN(Cc1cccnc1Oc1ccccc1)C(=O)c1cnccn1 | 691
O=C(c1ccc2c(c1)OCO2)N1CCCn2nc(-c3ccncc3)cc2C1 | 584
CC(=O)Nc1ccc(CCc2nc3ccc(C(=O)NC4CC4)cc3[nH]2)cc1 | 893
COC(=O)c1cc(C)nc2c1c(=O)n(Cc1cc(C)ccc1C)c(=O)n2Cc1ccco1 | 1170
Cc1ccc(-c2nnc(N3CCC(C(=O)NCc4cccs4)CC3)o2)cc1 | 933
Cc1ccc(-c2ccc(=O)n(CCc3nc(-c4ccc5c(c4)OCO5)no3)n2)cc1C | 1020
CCOC(=O)C1CCN(Cc2nc(-c3ccc(N4CCCC4)nc3)no2)CC1 | 572
Cc1cccc(NC(=O)C2CCN(S(=O)(=O)c3ccc4c(c3)sc(=O)n4C)CC2)c1C | 830
Cc1nnc2n1CCN(C(=O)c1nn(C)c3ccccc13)C2 | 605
CCN1C(=O)Cc2ccccc2C1C(=O)NCc1cccs1 (stereo unspecified) | 716
